Entries after “also recorded” stand apart in the source; their conditions may differ.
How the values were obtained:
Format in all cases: cell-based
DCIR = target: T1, DCIR (Homo sapiens, UniProt Q9UMR7); test: HIV-1 binding/entry assay on Raji-CD4-DCIR cells (cell-associated p24); settings: 10 μM pre-treatment 10 min; NL4-3 60 min; p24 content
T1 construct: expressed in transfected cells; host or cells: Raji-CD4 (human B cell line stably expressing human CD4), retroviral transduction
T1 sequence (Q9UMR7 1-237): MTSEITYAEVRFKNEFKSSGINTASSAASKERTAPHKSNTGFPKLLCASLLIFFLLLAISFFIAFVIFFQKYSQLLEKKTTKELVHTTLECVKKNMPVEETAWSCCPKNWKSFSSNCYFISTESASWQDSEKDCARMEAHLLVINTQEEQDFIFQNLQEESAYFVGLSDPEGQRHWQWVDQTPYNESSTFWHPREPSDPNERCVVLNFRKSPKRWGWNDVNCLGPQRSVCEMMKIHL
Method: FIG. 4 is a bar graph showing that inhibitors decrease HIV-1 binding on DCIR. Raji-CD4-DCIR cells were treated with 10 μM of four site A inhibitors (A1, A2, A3 and A4) and three site B inhibitors (B1, B2 and B3) (or with vehicle (DMSO) only) for 10 min at 37° C. Thereafter, cells were pulsed with NL4-3 for 60 min. After three washes with PBS to remove unadsorbed virus, the abundance of cell-associated viruses was quantified by measuring p24 content. Data shown correspond to the means±SEM of three independent experiments performed with triplicate samples. The asterisk (*) denotes statistically significant data (*, P<0.05, ** P<0.01, *** P<0.001).
(§1) Where indicated, 1×10^6 parental Raji-CD4 cells (DCIR-negative), Raji-CD4-DCIR or Raji-DC-SIGN transfectants were pre-treated with the indicated amount of a chemical inhibitor for 10 min. Cells were then pulsed with NL4-3 (an equivalent of 100 ng of p24) for 60 min at 37° C. The virus-cell mixture was then washed three times with PBS to remove unbound virus and re-suspended in PBS containing 1% BSA. Binding/entry was then determined by the p24 content by ELISA as above. For the infection assay, Raji-CD4 and Raji-CD4-DCIR (1×10^6 cells) were exposed to NL4-3 viral stock (100 ng of p24) for 2 h at 37° C. After three washes with PBS to remove excess virus, cells were maintained in culture for up to 9 days. Cell-free culture supernatants were collected at the indicated time points and assayed for p24 content.

HIV-1 (NL4-3) = test: HIV-1 infection assay on Raji-CD4 and Raji-CD4-DCIR cells (p24 in supernatant); settings: Raji-CD4 vs Raji-CD4-DCIR, NL4-3 2 h, culture 3 d
Method: FIG. 5 is a bar graph showing that specific inhibitors against the site A (A1, A4) and site B (B1, B2) decrease infectivity of Raji-CD4-DCIR. Raji-CD4 and Raji-CD4-DCIR were treated with the inhibitors selected following experiments described in FIG. 4, or DMSO. Cells were then exposed to NL4-3 for 2 h, rinsed and maintained in culture for 3d. Cell-free culture supernatants were collected and assayed for p24 content. Data shown correspond to the means±SEM from 3 independent experiments performed with triplicate samples. The asterisk (*) denotes statistically significant data (*, P<0.05, ** P<0.01, *** P<0.001).
as §1

DC-SIGN = target: T2, DC-SIGN (Homo sapiens, UniProt Q9NNX6); test: HIV-1 binding to Raji-DC-SIGN cells (p24); settings: NL4-3 60 min
T2 construct: expressed in transfected cells; host or cells: Raji cells stably transfected with a DC-SIGN plasmid
T2 sequence (Q9NNX6 1-404): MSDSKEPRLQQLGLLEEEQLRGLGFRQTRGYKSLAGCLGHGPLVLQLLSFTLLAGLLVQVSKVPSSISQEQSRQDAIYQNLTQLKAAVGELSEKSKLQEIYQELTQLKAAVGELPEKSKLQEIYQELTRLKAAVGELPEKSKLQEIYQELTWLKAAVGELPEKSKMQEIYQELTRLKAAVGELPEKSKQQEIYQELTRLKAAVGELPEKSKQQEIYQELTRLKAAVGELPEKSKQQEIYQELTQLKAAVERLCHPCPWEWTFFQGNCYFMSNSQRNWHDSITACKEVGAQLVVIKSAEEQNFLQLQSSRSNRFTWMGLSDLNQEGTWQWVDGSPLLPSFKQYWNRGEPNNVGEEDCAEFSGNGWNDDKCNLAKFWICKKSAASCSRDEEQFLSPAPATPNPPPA
Method: Raji-DC-SIGN cells were treated for 10 min at 37° C. with inhibitors A1 and A4 directed against the site A and B1 and B2 directed against the site B, or with DMSO. Afterwards, cells were pulsed with NL4-3 for 60 min, rinsed thrice with PBS were made to remove unadsorbed virus, and cell-associated viruses were quantified by measuring p24 content. Data shown correspond to the means±SEM of 3 independent experiments performed in triplicate.
as §1

HIV-1 (NL4-3/Balenv) [1] = test: HIV-1 binding assay on iMDDCs (p24); settings: IM-MDDCs, 10 μM pre-incubation 10 min, NL4-3balenv 60 min
Method: (§2) FIG. 7 is bar graphs showing that selected site A and site B inhibitors decrease HIV-1 binding and infection of IM-MDDCs. Upper panel: IM-MDDCs were treated with two chemical inhibitors directed against site A (A1 and A4) and two inhibitors directed against site B (B1 and B2) (or DMSO) for 10 min at 37° C. Next, cells were pulsed with NL4-3balenv for 60 min at 37° C. and rinsed extensively before measuring p24 content. Lower panel: In some experiments, similarly treated IM-MDDCs were pulsed with NL4-3balenv for 2 h at 37° C., rinsed extensively, and maintained in complete culture medium supplemented with GM-CSF and IL-4 for up to 9 days with medium replenishment every 3 days. Cell-free culture supernatants were quantified by measuring p24 content. Data shown correspond to the means±SEM of 3 independent experiments performed in triplicate. The asterisks denotes statistically significant data (*, P<0.05; **, P<0.01; ***, P<0.001).
(§3) For assessing binding/entry, iMDDCs (3×10^5 cells in a final volume of 300 μl) were pre-treated with 10 μM of different chemical inhibitors for 10 min and exposed to NL4-3/Balenv (30 ng of p24) for 60 min at 37° C. After three washes with PBS, cells were re-suspended in PBS containing 1% BSA. The p24 content was determined by ELISA, while susceptibility of iMDDCs to HIV-1 infection was assessed by initially exposing 3×10^5 cells to NL4-3/Balenv (30 ng) at 37° C. for 2 h. After three washes with PBS, cells were maintained in complete RPMI 1640 supplemented with GM-CSF and IL-4 in 96-well plates, in a final volume of 200 μl. Every 3 days and for a 9-day period, half of the conditioned medium was collected and kept at −20° C. until assayed. Virus production was estimated as above by measuring p24 levels by ELISA.

HIV-1 (NL4-3/Balenv) [2] = test: HIV-1 infection assay on iMDDCs (p24 in supernatant); settings: IM-MDDCs, NL4-3balenv 2 h, culture up to 9 days
Method: as §2, §3

Row | Structure (SMILES) | HIV-1 attachment to Raji-CD4-DCIR cells (DCIR) | HIV-1 production (HIV-1 (NL4-3)) | HIV-1 binding to DC-SIGN (DC-SIGN) | HIV-1 binding to DCs (HIV-1 (NL4-3/Balenv) [1]) | productive infection of DCs (HIV-1 (NL4-3/Balenv) [2])
1 | O=C(/C=C/C=C/c1ccccc1)c1ccccc1 [Compound A1, 1,5-diphenyl-2,4-pentadien-1-one] | statistically significant decrease; also recorded: proved active against HIV-1 binding | decreased HIV-1 production only in DCIR-expressing cells | do not block HIV-1 attachment to DC-SIGN | decreased significantly | blocked productive infection
2 | O=C(c1ccccc1)c1cc2ccccc2o1 [Compound B1, 1-benzofuran-2-yl(phenyl)methanone] | statistically significant decrease; also recorded: proved active against HIV-1 binding | decreased HIV-1 production only in DCIR-expressing cells | do not block HIV-1 attachment to DC-SIGN | decreased significantly | blocked productive infection
3 | Cc1ccc(/N=[N+](\[O-])c2ccc(C)cc2)cc1 [Compound B2, 1-methyl-4-[(4-methylphenyl)-NNO-azoxy]benzene] | statistically significant decrease | decreased HIV-1 production only in DCIR-expressing cells | do not block HIV-1 attachment to DC-SIGN | decreased significantly | blocked productive infection

Source: patent US9731001B2, “Three-dimensional cavities of dendritic cell immunoreceptor (DCIR), compounds binding thereto and therapeutic applications related to inhibition of human immunodeficiency virus type-1 (HIV-1)” (priority 2011, dated 2017)
